The subject of one experiment is CA-755. Description: In vivo antitumor activity against mouse CA-755 cells. The experiment is classed as functional, organism-based.
A further experiment relates to L1210. Nature of the experiment: In vivo antitumor activity against mouse L1210 cells. The experiment is classed as functional, organism-based.
For experiment [1], the system named is Lewis lung carcinoma cell line. Nature of the experiment: In vivo antitumor activity against mouse LLC cells. The class given is functional, organism-based.
A further experiment concerns CCRF S-180. Nature of the experiment: In vivo antitumor activity against mouse S180 cells. The class given is functional, organism-based.
The next experiment concerns Walker 256. Nature of the experiment: In vivo antitumor activity against rat Walker 256 cells. The class given is functional, organism-based.
The subject of a further experiment is KB. Nature of the experiment: Cytotoxicity against human KB cells. The experiment is classed as functional. The conditions noted are these: read-out: ED50 (the source's name).
A further experiment relates to FV. Nature of the experiment: In vivo antitumor activity against mouse FV cells. The class given is functional, organism-based.

Molecules are shown by their SMILES. Values after ≈ are worked out from the molar mass of the structure shown. Active and inactive are the calls of the source.

`O=C1c2ccc(O)cc2OC(c2ccc(O)c(O)c2)C1O` (centres undefined): the result (with CA-755; in the experiment with L1210; in experiment [1]; in the experiment with CCRF S-180) was inactive.
Take `O=c1cc(-c2ccc(O)cc2)oc2c(O)c(O)c(O)cc12`: the outcome (in experiment [1]; in the experiment on Walker 256) was inactive. The EC50 with KB is 22 µg/mL (≈ 76.9 µM).
Take `CCOC1(O)C(=O)c2ccccc2OC1(OCC)c1ccccc1` (centres undefined): the result in the experiment on L1210 and in the experiment with Walker 256 was inactive.
Regarding `COc1ccc(-c2oc3ccc(C)cc3c(=O)c2O)cc1`, the outcome (with CA-755; in the experiment with L1210; in experiment [1]; with CCRF S-180) was inactive. In the experiment on KB, the EC50 stood at 2 µg/mL (≈ 7.08 µM).
As for `O=c1cc(-c2ccccc2)oc2cc(O)cc(O)c12` [CHRYSIN], the result in the experiment with L1210 and in the experiment on Walker 256 was inactive. For the same molecule, in the experiment with KB, the EC50 worked out at 13 µg/mL (≈ 51.1 µM).
Consider `C[C@@H]1O[C@@H](Oc2c(-c3cc(O)c(O)c(O)c3)oc3cc(O)cc(O)c3c2=O)[C@H](O)[C@H](O)[C@H]1O`, for which the outcome (in the experiment with CA-755; in the experiment on L1210; in experiment [1]; in the experiment with CCRF S-180) was inactive. Besides, the EC50 in the experiment with KB worked out at 8.3 µg/mL (≈ 17.9 µM).
Consider `COc1c(OC)c(OC)c2c(=O)cc(-c3ccc4c(c3)OCO4)oc2c1OC`, for which the outcome with Walker 256 was inactive.
On to `COc1ccc(C2(OC)Oc3ccccc3C(=O)C2(O)O)cc1` (centres undefined), for which the outcome with L1210 and in the experiment on Walker 256 was inactive.
As for `O=c1cc(-c2ccccc2)oc2ccc(O)cc12` [6-HYDROXYFLAVONE], the result in experiment [1] was Active. Further, the outcome in the experiment on Walker 256 and in the experiment on CCRF S-180 was inactive. Also, the EC50 in the experiment on KB came to 18 µg/mL (≈ 75.6 µM).
In the case of `O=C1CC(c2ccc(O)cc2)Oc2cc(O)cc(O)c21` (centres undefined), the result (in the experiment with CA-755; in the experiment on L1210; in experiment [1]; in the experiment on CCRF S-180) was inactive.
With `O=C1CC(c2ccccc2)Oc2ccccc21` (centres undefined), the result in the experiment on CA-755, in the experiment on FV, in the experiment with L1210 and with CCRF S-180 was inactive.
As to `COc1ccc(C2(OC)Oc3cc(OC)ccc3C(=O)C2(O)OC)cc1` (centres undefined), the result in the experiment on L1210 and with Walker 256 was inactive.
Consider `O=c1cc(-c2cccc(F)c2)oc2ccccc12`, for which the outcome (with L1210; in experiment [1]; in the experiment on CCRF S-180) was inactive.
For the molecule `O=c1cc(-c2ccccc2F)oc2ccccc12`, the outcome (in the experiment with L1210; in experiment [1]; in the experiment on CCRF S-180) was inactive.
For `O=C1c2c(O)cc(O)cc2OC(c2ccc(O)c(O)c2)C1O` (centres undefined) [TAXIFOLIN], the result in the experiment on CA-755, with Walker 256 and with CCRF S-180 was inactive. Further, the EC50 in the experiment with KB is 40 µg/mL (≈ 131 µM).
On to `Nc1c(-c2ccccc2)oc2ccc(Cl)cc2c1=O`, for which the result in the experiment with FV, in the experiment on L1210 and in the experiment with CCRF S-180 was inactive. For the same molecule, in the experiment with KB, the EC50 was greater than 100 µg/mL.
As to `COc1cc(OC)c(-c2cc(=O)c3c(OC)c(OC)c(OC)c(OC)c3o2)cc1OC`, in experiment [1], the result was inactive. The result with Walker 256 was Active. Moreover, the EC50 with KB was 13 µg/mL (≈ 30.1 µM).
As to `COc1ccc(-c2cc(=O)c3c(OC)c(OC)c(OC)c(OC)c3o2)c(OC)c1`, the result (in experiment [1]; in the experiment with CCRF S-180) was inactive. Moreover, the EC50 in the experiment on KB is 15 µg/mL (≈ 37.3 µM).
As for `COc1c(OC)c(OC)c2c(=O)cc(-c3ccc(OC(C)=O)cc3)oc2c1OC`, the outcome (with CA-755; in experiment [1]; in the experiment with CCRF S-180) was inactive. The EC50 in the experiment with KB came out at 3 µg/mL (≈ 7.49 µM).
For the molecule `COc1cc(O)c2c(=O)c(O[C@@H]3O[C@H](CO[C@@H]4O[C@@H](C)[C@H](O)[C@@H](O[C@@H]5O[C@@H](C)[C@H](O)[C@@H](O)[C@H]5O)[C@H]4O)[C@@H](O)[C@H](O)[C@H]3O)c(-c3ccc(O)c(O)c3)oc2c1`, the outcome (in the experiment with CA-755; with L1210; in experiment [1]; in the experiment on CCRF S-180) was inactive. Further, the EC50 with KB was found to be 8.5 µg/mL (≈ 11 µM).
As for `COc1c(OC)c(OC)c(-c2cc(=O)c3c(OC)c(OC)c(OC)c(OC)c3o2)c(OC)c1OC`, the result in experiment [1] was inactive. Also, the EC50 in the experiment on KB is 4 µg/mL (≈ 8.12 µM).
As for `O=c1cc(-c2ccccc2)oc2cc(O)ccc12`, the outcome (in the experiment on L1210; in experiment [1]; in the experiment on CCRF S-180) was inactive.
As to `Cc1oc2cc(O)ccc2c(=O)c1-c1ccccc1`, the result in the experiment with L1210 and in the experiment on Walker 256 was inactive.
In the case of `COc1ccc(-c2oc3cc(OC)ccc3c(=O)c2O)cc1`, the result (with CA-755; in the experiment on L1210; in experiment [1]) was inactive.
Consider `COc1ccc2c(=O)c(C)c(-c3ccccc3)oc2c1`, for which the outcome in the experiment on FV was Active. The result with L1210 and in the experiment with CCRF S-180 was inactive. The EC50 in the experiment with KB came out at 43 µg/mL (≈ 161 µM).
`O=c1c(-c2ccc3c(c2)OCO3)coc2cc(O)ccc12`: the outcome in the experiment on L1210 and in the experiment with Walker 256 was inactive.
As to `O=c1c(O)c(-c2c(O)cccc2O)oc2ccccc12`, the result in the experiment with FV, in the experiment on L1210 and in the experiment on CCRF S-180 was inactive. Besides, in the experiment with KB, the EC50 is greater than 100 µg/mL.
Take `COc1ccc(OC)c(-c2cc(=O)c3c(OC)c(OC)c(OC)c(OC)c3o2)c1`: in the experiment with FV, the outcome was Active. Further, the result in the experiment on CCRF S-180 was inactive. The EC50 with KB was 4 µg/mL (≈ 9.94 µM).
As for `O=c1c(O)c(-c2ccc(O)c(O)c2)oc2cc(O)cc(O)c12` [QUERCETIN], the outcome in the experiment on Walker 256 was Active. Further, the EC50 in the experiment on KB is 25 µg/mL (≈ 82.7 µM).
`COc1ccc(-c2cc(=O)c3ccccc3o2)c(OC)c1OC`: the result (with CA-755; with L1210; in experiment [1]; in the experiment with CCRF S-180) was inactive. For the same molecule, the EC50 in the experiment on KB came to 13 µg/mL (≈ 41.6 µM).
For `O=c1c(O)c(-c2ccc(Cl)cc2)oc2ccccc12`, the result in the experiment on L1210 and in the experiment on Walker 256 was inactive.
For `COc1ccc(-c2coc3cc(OC)c(OC)c(OC)c3c2=O)cc1`, the result in the experiment on FV was Active. The outcome in the experiment on CCRF S-180 was inactive. Moreover, the EC50 with KB was 34 µg/mL (≈ 99.3 µM).
Regarding `COc1ccc(-c2cc(=O)c3c(OC)c(OC)c(OC)c(OC)c3o2)cc1OC` [NOBILETIN], the outcome (in experiment [1]; in the experiment on Walker 256) was inactive. For the same molecule, in the experiment with KB, the EC50 was 3 µg/mL (≈ 7.46 µM).
Take `COc1cc2occ(-c3ccc(O)cc3)c(=O)c2c(OC)c1O`: in the experiment with FV, the outcome was inactive.
In the case of `COc1ccc(-c2coc3c(OC)c(OC)c(OC)c(OC)c3c2=O)cc1`, the outcome with FV was Active.
`COc1cc(OC)c(-c2oc3ccccc3c(=O)c2O)cc1OC`: the outcome in the experiment with FV, in the experiment on L1210 and in the experiment on CCRF S-180 was inactive. The EC50 in the experiment on KB stood at 5 µg/mL (≈ 15.2 µM).
With `COc1ccccc1-c1cc(=O)c2ccc(OC)c(OC)c2o1`, the result (with CA-755; in the experiment on L1210; in experiment [1]; in the experiment with CCRF S-180) was inactive. The EC50 with KB was determined as 4 µg/mL (≈ 12.8 µM).
`COc1cc(-c2cc(=O)c3c(OC)c(OC)c(OC)c(OC)c3o2)cc(OC)c1OC` [HEPATAMETHOXYFLAVONE]: the result (with CA-755; with L1210; in experiment [1]; in the experiment with CCRF S-180) was inactive. For the same molecule, in the experiment on KB, the EC50 is 0.5 µg/mL (≈ 1.16 µM).
On to `CCOc1ccc(-c2coc3cc(C)c(OCC)c(C)c3c2=O)cc1`, for which, in the experiment on FV, the outcome was inactive.
With `C[C@@H]1O[C@@H](OC[C@H]2O[C@@H](Oc3c(-c4ccc(O)c(O)c4)oc4cc(O)cc(O)c4c3=O)[C@H](O)[C@@H](O)[C@@H]2O)[C@H](O)[C@H](O)[C@H]1O`, the result (in the experiment on CA-755; in the experiment on L1210; in experiment [1]; in the experiment with CCRF S-180) was inactive. Moreover, in the experiment with Walker 256, the outcome was Active.
Consider `O=c1cc(-c2ccc(F)cc2)oc2ccccc12`, for which the outcome (in the experiment on L1210; in experiment [1]; in the experiment on CCRF S-180) was inactive.
Consider `COC1(O)C(=O)c2ccccc2OC1(OC)c1ccc(C)cc1` (centres undefined), for which the result with L1210 and in the experiment on Walker 256 was inactive.
`O=c1cc(-c2ccccc2)oc2ccc(F)cc12`: the outcome (in experiment [1]; in the experiment on CCRF S-180) was inactive.
`O=c1cc(-c2ccccc2)oc2cccc(O)c12` [5-HYDROXYFLAVONE]: the outcome (in experiment [1]; in the experiment on CCRF S-180) was inactive. The result in the experiment on Walker 256 was Active. In addition, in the experiment with KB, the EC50 is 20 µg/mL (≈ 83.9 µM).
Regarding `CCOC(=O)c1oc2cc(O)cc(O)c2c(=O)c1-c1ccc(OC)cc1`, the outcome in the experiment with L1210 and in the experiment on CCRF S-180 was inactive. The result in experiment [1] was Active. Moreover, in the experiment on KB, the EC50 is 21 µg/mL (≈ 58.9 µM).
As to `O=C1/C(=N\O)C(c2ccccc2)Oc2ccccc21` (centres undefined), the result in the experiment on CA-755, in the experiment on L1210 and with CCRF S-180 was inactive. Also, the EC50 in the experiment with KB amounted to 35 µg/mL (≈ 138 µM).
Turning to `COc1ccc2c(c1)C(=O)C(O)(OC)C(OC)(c1ccccc1)O2` (centres undefined), the result with L1210 and in the experiment with Walker 256 was inactive.

Source of the values: ChEMBL document CHEMBL1151292, “Antineoplastic activity and cytotoxicity of flavones, isoflavones, and flavanones” (1979).
